Assay results published in patent US9399047B2, “Composition and method to alleviate joint pain using phospholipids and roe extract” (U.S. NUTRACEUTICALS, LLC, priority 2009, dated 2016).

How the values were obtained:
[1] = cited from earlier work
[2] = 4 mgs/day, compared to untreated subjects; cited from earlier work
[3] = cited from earlier work; remark: listed apart in the source
[4] = tested on: C-Reactive Protein (C-RP); settings: human subjects with high risk levels of C-RP, three months of treatment; cited from earlier work
rats = settings: cited from earlier work
[5] = cited from earlier work; remark: listed apart in the source
[6] = tested on: photo-receptors, ganglion and neuronal cell; settings: cited from earlier work
[7] = tested on: cellular membrane lipid peroxidation; settings: cited from earlier work
inflammatory markers = settings: astaxanthin 1 mg/kg, cited from earlier work
healthy adults = settings: eight weeks, 6 mg per day; cited from earlier work
[8] = serum; cited from earlier work
NO, PGE-2 and TNF-Alpha = settings: induced uveitis; cited from earlier work
lens epithelial cells = settings: in vitro, umol/L concentrations; cited from earlier work
solubility = assay type: physicochemical
Excerpt: It is also possible to use a pure diol of the S,S′ astaxanthin, including a synthetic diol with a surfactant and/or the low molecular weight hyaluronic acid. It is possible to use that pure diol in combination with the EPA rich algae based oil or other fish, roe extract, or plant based oil and/or phospholipid and/or surfactant as described above, and which is admixed with either astaxanthin derived from Haematococcus pluvialis or the free diol form in substantially pure S,S′ enantiomer form. It is possible to add synthetically derived mixed enantiomers of the diol. The diol of the S,S′ astaxanthin is possible because in cases of krill oil and possibly algae based oils and Hp derived and other types, there are principally diesters and monoesters respectively with very little diol, which is insoluble. […] It is possible to synthesize asymmetrically the S,S′ pure diol. Despite the pure diol's poor solubility in some examples, there may be an active transport mechanism related to its bioavailability, or conversely, that only in the diol form is the monoester or diester forms transferred from the intestines to the blood. […]

CCCCCCCCCCCCCCCC(=O)O[C@H]1CC(C)(C)C(/C=C/C(C)=C/C=C/C(C)=C/C=C/C=C(C)/C=C/C=C(C)/C=C/C2=C(C)C(=O)[C@@H](OC(=O)CCCCCCCCCCCCCCC)CC2(C)C)=C(C)C1=O [(3R,3′R-astaxanthin dipalmitate, reference compound]
relative absorption of astaxanthin compared to the other two isomers ([1]; men, astaxanthin fatty acyl diesters (Coral-Hinostroza et al. 2004)): higher relative absorption

CC1=C(/C=C/C(C)=C/C=C/C(C)=C/C=C/C=C(C)/C=C/C=C(C)/C=C/C2=C(C)C(=O)[C@@H](O)CC2(C)C)C(C)(C)C[C@H](O)C1=O [Astaxanthin, 3,3′-dihydroxy-β-β-carotene-4,4′-dione]
post exercise joint fatigue following strenuous knee exercise [2]: prevented post exercise joint fatigue | quenching of singlet oxygen, times more powerful than Vitamin E ([3]; versus Vitamin E): about 50 times | quenching of singlet oxygen, relative to lutein ([3]; versus lutein): three times more powerful | quenching of singlet oxygen, times more powerful than β-carotene ([3]; versus β-carotene): 11 times | patients whose serum C-RP levels dropped below the risk level [4]: 43% | Oral LD 50 (rats; rat, in vivo, po): 600 mg/kg | NOAEL (rats; rats): 465 mg/kg | free radical quenching ability, times more powerful than Vitamin C ([5]; versus Vitamin C): 65 times | free radical quenching ability, times more powerful than Vitamin E ([5]; versus Vitamin E): 14 times | free radical quenching ability, times more powerful than lutein ([5]; versus lutein): 47 times | free radical quenching ability, times more powerful than β-carotene ([5]; versus β-carotene): 54 times | crossing of the blood-brain-retina barrier ([6]; direct measurement of retinal astaxanthin concentrations): crosses the blood-brain-retina barrier | photon induced damage of photo-receptors, ganglion and neuronal cell damage ([6]; in vivo): protection | effect on pro-oxidant activity of Vioxx [7]: negate the pro-oxidant activity of Vioxx | down regulates TNF-alpha production (inflammatory markers; in vitro and in vivo): 75% | down regulates prostaglandin E-2 production (PGE-2) (inflammatory markers; in vitro and in vivo): 75% | inhibits nitric oxide synthase (Nos) expression of nitric oxide (inflammatory markers; in vitro and in vivo): 58% | effects on inflammatory markers compared with prednisolone (inflammatory markers): nearly as effective as prednisolone | negative effect of supplementation (healthy adults): no negative effect | Cmax [8]: 65 ng/mL | T1/2 [8]: 16 h | Tmax [8]: 8 h | ocular anti-inflammatory activity by suppression of NO, PGE-2 and TNF-Alpha (NO, PGE-2 and TNF-Alpha): dose dependant ocular anti-inflammatory activity | UVB induced lipid peroxidative mediated cell damage (lens epithelial cells): suppresses

CC1=C(/C=C/C(C)=C/C=C/C(C)=C/C=C/C=C(C)/C=C/C=C(C)/C=C/C2=C(C)C(=O)[C@@H](O)CC2(C)C)C(C)(C)C[C@H](O)C1=O [free astaxanthin diol]
uptake relative to esterified astaxanthin ([1]; human plasma, feeding studies): 4-5 times

CC1=C(/C=C/C(C)=C/C=C/C(C)=C/C=C/C=C(C)/C=C/C=C(C)/C=C/C2=C(C)C(=O)[C@@H](O)CC2(C)C)C(C)(C)C[C@H](O)C1=O [diol of the S,S′ astaxanthin]
solubility (solubility): insoluble
